# Laboratory results taken from patent US20020143164A1, “Ras activator nucleic acid molecules, polypeptides and methods of use” (priority 1999, published 2002).
# What was measured:
# GRF4 [1] = molecular target: T1, GRF4 (Homo sapiens, UniProt Q9Y4G8); assay: Ras activation assay in living cells (GST-Raf1-RBD pull-down), treatment of GRF4-transfected cells; assay type: cell-based; conditions: for Effect of PKG inhibitor on 8-Br-cGMP enhanced activation of Ras by GRF4: H-8 5 μM or Rp-8-Br-cGMPS 25 μM, then 8-Br-cGMP 500 μM; for Effect of PKG inhibitor on 8-Br-cGMP enhanced activation of Ras by GRF4 / cAMP stimulation of GRF4-mediated activation of Ras in the presence of PKA inhibitor: 30 min; for cAMP stimulation of GRF4-mediated activation of Ras in the presence of PKA inhibitor: H-89 10 μM or Rp-8-Br-cAMPS 50 μM, then 8-Br-cAMP 500 μM; for GRF4 stimulation of Ras activation enhanced following treatment / Enhancement of activation of Ras by GRF4 by membrane permeable cNMP analogue: HEK-293T cells transfected with Flag-GRF4; for Enhancement of activation of Ras by GRF4 by membrane permeable cNMP analogue: analogue 500 μM
# T1 construct: Flag, HA or myc tags was added to the N-terminus of full length GRF4 using PCR; expressed in transfected cells; host or cells: HEK-293T
# T1 sequence (Q9Y4G8 1-1499): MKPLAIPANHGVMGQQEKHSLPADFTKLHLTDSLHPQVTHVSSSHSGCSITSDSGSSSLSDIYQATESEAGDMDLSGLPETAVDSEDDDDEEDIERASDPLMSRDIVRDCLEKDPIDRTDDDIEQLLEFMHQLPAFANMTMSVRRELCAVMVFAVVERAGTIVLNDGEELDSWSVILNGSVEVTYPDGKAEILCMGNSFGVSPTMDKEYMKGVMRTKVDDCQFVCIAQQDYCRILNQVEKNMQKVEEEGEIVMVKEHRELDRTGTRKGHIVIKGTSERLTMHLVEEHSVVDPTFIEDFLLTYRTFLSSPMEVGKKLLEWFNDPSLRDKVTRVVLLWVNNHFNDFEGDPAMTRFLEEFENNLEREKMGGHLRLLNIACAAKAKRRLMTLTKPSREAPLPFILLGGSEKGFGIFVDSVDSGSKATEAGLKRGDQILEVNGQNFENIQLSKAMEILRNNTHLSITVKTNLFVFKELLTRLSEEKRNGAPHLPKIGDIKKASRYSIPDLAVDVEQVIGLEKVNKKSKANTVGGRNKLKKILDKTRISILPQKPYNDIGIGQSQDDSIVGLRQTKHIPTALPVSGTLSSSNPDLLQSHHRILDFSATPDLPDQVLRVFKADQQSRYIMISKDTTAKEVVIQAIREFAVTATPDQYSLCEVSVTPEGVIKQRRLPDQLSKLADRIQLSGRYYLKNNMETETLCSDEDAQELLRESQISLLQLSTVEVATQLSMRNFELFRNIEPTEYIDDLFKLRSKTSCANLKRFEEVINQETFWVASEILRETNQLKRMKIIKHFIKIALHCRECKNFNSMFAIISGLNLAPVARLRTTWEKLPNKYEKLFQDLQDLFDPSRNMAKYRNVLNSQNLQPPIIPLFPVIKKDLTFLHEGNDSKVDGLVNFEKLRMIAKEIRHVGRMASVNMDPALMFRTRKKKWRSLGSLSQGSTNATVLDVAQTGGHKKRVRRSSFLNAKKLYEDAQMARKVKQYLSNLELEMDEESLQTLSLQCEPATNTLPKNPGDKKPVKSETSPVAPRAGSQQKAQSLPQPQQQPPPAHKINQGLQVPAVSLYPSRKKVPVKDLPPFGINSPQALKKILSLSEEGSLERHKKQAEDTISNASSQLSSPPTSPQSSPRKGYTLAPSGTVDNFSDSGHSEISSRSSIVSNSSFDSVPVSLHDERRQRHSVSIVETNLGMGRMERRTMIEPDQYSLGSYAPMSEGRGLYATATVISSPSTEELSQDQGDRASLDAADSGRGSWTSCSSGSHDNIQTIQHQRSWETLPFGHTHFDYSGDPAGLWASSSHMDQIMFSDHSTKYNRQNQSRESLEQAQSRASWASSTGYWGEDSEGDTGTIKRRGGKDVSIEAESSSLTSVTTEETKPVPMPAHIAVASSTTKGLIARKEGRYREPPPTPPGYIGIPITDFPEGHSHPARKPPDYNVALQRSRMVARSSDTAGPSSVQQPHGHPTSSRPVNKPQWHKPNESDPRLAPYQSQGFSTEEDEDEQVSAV
# Protocol: Cells were then lysed and lysate incubated with immobilized Ras binding domain (RBD) of Raf1 (GST-Raf1-RBD), which binds activated (GTP-bound) Ras. Co-precipitated activated ras was then detected with anti Ras antibodies (Quality Biotech) (upper panel). Lower 2 panels depict the amounts of total endogenous Ras and of the transfected GRF4 (detected with anti Ras and anti Flag antibodies, respectively).
# Cells were transfected (or not) with Flag-GRF4 and serum-starved overnight as in (a) above, pre-treated (or not) with the PKG inhibitors H8 (5 μM) or Rp-cGMPS (25 μM) and then treated (or not) with the cGMP analogue 8-Br-cGMP (500 μM), as in (a) above. Activated Ras was then precipitated with GST-Raf1-RBD (upper panel), as in (a). Lower panels show total endogenous Ras and GRF4 expressed in the cells.
# Parallel treatments with 8-Br-cAMP or 8-Br-cGMP were used as positive controls. Lysates of treated cells were then incubated with GST-Raf1-RBD to precipitate activated Ras, and immunoblotted with anti Ras antibodies, as above (upper panel). Lower panels are as in (a) and (b) above.
# The membrane permeable 8-Br-cAMP and 8Br-cGMP analogs (Sigma) were used at a concenreation of 500 μM for 15 min. Inhibitors of PKA: H-89 and Rp-8-Br-cAMPS (CalBiochem) were used at 10 μM and 50 μM, respectively, for 30 min. Inhibitors of PKG: H-8 and Rp-8-Br-cGMPS (CalBiochem) were used at 5 μM and 25 μM, respectively, for 30 min. Activators of Adenylyl Cyclase, Forskolin (Sigma), and activator of Guanylyl Cyclase, YC-1 (CalBiochem), were used at 50 μM and 100 μM, respectively, for 15 min.
# (§1) HEK-293T cells were transfected as above, serum starved overnight and then subjected to various treatments, as described in the text. Cells were lysed with lysis buffer (25 mM Hepes, pH 7.5, 150 mM NaCl, 1% NP-40, 0.25% Na deoxycholate, 10% glycerol, 25 mM NaF, 10 mM MgCl2, 1 mM EDTA, 1 mM NaVO4, […]) and the level of Ras.GTP or Rap. GTP in the lysates was determined using activation specific probes as described. Briefly, to determined the levels of active Ras (Ras-GTP) in cell, sepharose-bound GST fusion protein of the Ras-binding domain (RBD) of Raf-1 (GST-Raf1-RBD; Upstate Biotechnology Inc.) was used to precipitate Ras-GTP from cell lysates, and the amount of Ras-GTP determined by immunoblotting with anti Ras antibodies (Quality Biotech). Similarly, to determine the level of Rap1-GTP in cell lysates, sepharose-bound GST fusion proteins of the Rap1-binding domain of RaIGDS (GST-RaIGDS-RBD) were used to precipitate Rap1-GTP, which was then detected on a Western blot using anti-Rap1 antibodies (Transduction Lab).
# GRF4 [2] = molecular target: T1, GRF4; assay: Activation of Ras and MAPK by cNMP analogues in GRF4-transfected HEK-293T cells; assay type: cell-based; conditions: HEK-293T cells transfected with GRF4; not in untransfected cells
# Protocol: The small GTPase Ras controls the MAPK pathway and exerts its effects on cellular processes primarily through this pathway. MAPK is a downstream kinase of Ras and thus, Ras activation leads to MAPK activation (FIG. 6A). Therefore, we show the GRF4 effects on MAPK activation using assays in which levels of active MAPK in cells is determined using antibodies recognizing phosphorylated (active) MAPK.
# Rap1 = Rap1 activation assay in living cells (GST-RalGDS-RBD pull-down); assay type: cell-based, human; conditions: HEK-293T cells expressing GRF4
# Protocol: as §1
# GRF4-cNMP-BD = molecular target: T2, GRF4-cNMP-BD (Homo sapiens, UniProt Q9Y4G8); assay: cAMP-agarose binding assay; conditions: data not shown
# T2 construct: The GST-GRF4-cNMP-BD (residue 101-303); made in house
# T2 sequence (Q9Y4G8 101-303): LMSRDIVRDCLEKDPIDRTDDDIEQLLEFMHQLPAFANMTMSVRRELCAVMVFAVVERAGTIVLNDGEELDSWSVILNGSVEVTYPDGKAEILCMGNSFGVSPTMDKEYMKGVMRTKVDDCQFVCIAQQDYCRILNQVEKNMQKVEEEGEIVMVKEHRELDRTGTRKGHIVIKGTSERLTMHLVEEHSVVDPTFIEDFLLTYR
# Protocol: Right and left panels in (b) represent two separate experiments.
# Following extensive washes in HNTG (20 mM Hepes, pH 7.5, 150 mM NaCl, 0.1% Triton ×100, 10% Glycerol) proteins were eluted off beads with sample buffer, separated on SDS-PAGE and immunoblotted with either anti GST antibodies for the in vitro binding experiments, or with anti GRF4 antibodies for the pull down experiments.
structure (smiles),measurement,setting,value
"Nc1nc2c(nc(Br)n2[C@@H]2O[C@@H]3COP(O)(=S)O[C@H]3[C@H]2O)c(=O)[nH]1 (single isomer, unassigned) [RP8-Br-cGMPS, Guanosine 3′,5′-cyclic monophosphorothioate, 8-Bromo-, Rp-isomer]",Effect of PKG inhibitor on 8-Br-cGMP enhanced activation of Ras by GRF4,GRF4 [1],lack of effect
"Nc1ncnc2c1nc(Br)n2C1OC2COP(O)(=S)OC2C1O (single isomer, unassigned) [Rp8-Br-cAMPS, Adenosine 3′,5′-cyclic monophosphorothioate, 8-Bromo-, Rp-isomer]",cAMP stimulation of GRF4-mediated activation of Ras in the presence of PKA inhibitor,GRF4 [1],still able to stimulate
Nc1ncnc2c1nc(Br)n2[C@@H]1O[C@@H]2COP(=O)(O)O[C@H]2[C@H]1O [8-Br-cAMP],Activation of Ras and of MAPK in GRF4-expressing cells,GRF4 [2],leads to activation
same,GRF4 stimulation of Ras activation enhanced following treatment,GRF4 [1]; 8-Br-cAMP 500 μM 15 min plus H-89 10 μM 30 min pre-treatment,3.5 fold
same,GRF4 stimulation of Ras activation enhanced following treatment,"GRF4 [1]; 8-Br-cAMP 500 μM, 15 min",3.9 fold
same,Enhancement of activation of Ras by GRF4 by membrane permeable cNMP analogue,GRF4 [1]; 15 min,greatly enhanced
same,Stimulation of GRF4-mediated activation of Rap1,Rap1,not stimulated
Nc1nc2c(nc(Br)n2[C@@H]2O[C@@H]3COP(=O)(O)O[C@H]3[C@H]2O)c(=O)[nH]1 [8-Br-cGMP],Activation of Ras and of MAPK in GRF4-expressing cells,GRF4 [2],leads to activation
same,Enhancement of activation of Ras by GRF4 by membrane permeable cNMP analogue,GRF4 [1]; 15 min,greatly enhance
"CNCCNS(=O)(=O)c1cccc2cnccc12 [H-8, N-[2-(methylamino)ethyl]-5-isoquinolinesulfonamide]",Effect of PKG inhibitor on 8-Br-cGMP enhanced activation of Ras by GRF4,GRF4 [1],lack of effect
"O=S(=O)(NCCNCC=Cc1ccc(Br)cc1)c1cccc2cnccc12 [H-89, N-[2-((Pbromocinnamyi)amino)ethyl]-5-isoquinoiinesulfonamide]",cAMP stimulation of GRF4-mediated activation of Ras in the presence of PKA inhibitor,GRF4 [1],still able to stimulate
"Nc1nc2c(ncn2[C@@H]2O[C@@H]3COP(=O)(O)O[C@H]3[C@H]2O)c(=O)[nH]1 [cGMP, reference compound]",Competition of cAMP binding to the GRF4-cNMP-BD,GRF4-cNMP-BD,effectively competed
